Molecular target: 2-methylisoborneol synthase (MIBS), full length (Streptomyces coelicolor, UniProt Q9F1Y6, E193A)
Test: GC-MS of pentane-extracted products
Assay type: biochemical
Conditions: 60 μM substrate, 5 μM enzyme, 10 mM MgCl2, pH 7.0, 30 °C, 12 h

2-methylisoborneol synthase (MIBS), full length, sequence (Q9F1Y6 whole entry E193A): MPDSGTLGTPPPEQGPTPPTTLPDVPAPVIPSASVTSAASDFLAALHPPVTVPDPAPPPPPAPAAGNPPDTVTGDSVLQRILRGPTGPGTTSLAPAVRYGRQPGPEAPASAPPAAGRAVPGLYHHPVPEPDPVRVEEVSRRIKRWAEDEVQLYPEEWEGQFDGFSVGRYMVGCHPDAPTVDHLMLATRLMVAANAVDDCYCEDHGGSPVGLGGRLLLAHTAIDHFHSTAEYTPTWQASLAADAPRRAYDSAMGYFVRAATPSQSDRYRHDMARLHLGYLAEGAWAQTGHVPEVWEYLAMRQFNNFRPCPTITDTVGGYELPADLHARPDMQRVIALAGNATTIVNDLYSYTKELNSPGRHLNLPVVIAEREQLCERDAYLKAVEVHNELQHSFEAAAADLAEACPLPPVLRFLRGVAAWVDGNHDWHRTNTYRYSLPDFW

With `CC(C)=CCC/C(C)=C(\C)COP(=O)(O)OP(=O)(O)O` [2MGPP, 2-methylgeranyl diphosphate] the “GC-MS of pentane-extracted products” value was “overnight incubation of the E193A, E193L, and E193D mutants with 2MGPP”.

Reference: PMC3323742 (Biochemistry, 2012)
